Test results from ChEMBL document CHEMBL1140021, “Ferulic acid and benzothiazole dimer derivatives with high binding affinity to beta-amyloid fibrils” (Bioorg Med Chem Lett, 2007).
pKi: −log10 of the molar value.

Experiment: Displacement of [125I]TZDM from human beta amyloid fibril 1-42

pKi	SMILES
8.87	COc1cc(/C=C/C(=O)O)ccc1N1CCN(c2ccc(/C=C/C(=O)O)cc2OC)CC1
9.00	COc1cc(/C=C/C(=O)O)ccc1OCCOc1ccc(N(C)C)cc1OC
9.09	Cc1ccc2nc(NCCNc3nc4ccc(C)cc4s3)sc2c1
9.24	COc1cc(/C=C/C(=O)O)ccc1OCCOc1ccc(N(CC(=O)O)CC(=O)O)cc1OC
9.12	Fc1ccc2nc(NCCNc3nc4ccc(F)cc4s3)sc2c1
8.95	Brc1ccc2nc(NCCNc3nc4ccc(Br)cc4s3)sc2c1
9.16	Nc1ccc2nc(NCCNc3nc4ccc(N)cc4s3)sc2c1
< 8.00	CS(=O)(=O)c1ccc2nc(NCCNc3nc4ccc(S(C)(=O)=O)cc4s3)sc2c1
9.19	CN(CCN(C)c1nc2ccc(Cl)cc2s1)c1nc2ccc(Cl)cc2s1
9.26	CN(CCN(C)c1nc2ccc(S(C)(=O)=O)cc2s1)c1nc2ccc(S(C)(=O)=O)cc2s1
9.16	CN(CCN(C)c1nc2ccc(N)cc2s1)c1nc2ccc(N)cc2s1
9.22	COc1cc(/C=C/C(=O)O)ccc1OCCOc1ccc(/C=C/C(=O)O)cc1OC
9.28	CN(CCN(C)c1nc2ccccc2s1)c1nc2ccccc2s1
8.86	CN(CCN(C)c1nc2ccc(F)cc2s1)c1nc2ccc(F)cc2s1
9.26	CN(CCN(C)c1nc2ccc(Br)cc2s1)c1nc2ccc(Br)cc2s1
9.14	COc1cc(/C=C/C(=O)O)ccc1N(C)CCN(C)c1ccc(/C=C/C(=O)O)cc1OC
9.15	c1ccc2sc(NCCNc3nc4ccccc4s3)nc2c1
9.02	Clc1ccc2nc(NCCNc3nc4ccc(Cl)cc4s3)sc2c1
9.21	Cc1ccc2nc(N(C)CCN(C)c3nc4ccc(C)cc4s3)sc2c1
9.11	COc1cc(/C=C/C(=O)O)ccc1O [FERULATE]
9.11	[11CH3]Nc1ccc(-c2nc3ccc(O)cc3s2)cc1 [PITTSBURGH COMPOUND B]
